Test results from US12702715B2, “Targeted RNA degradation allows precision repurposing of protein-targeted small molecule medicines to RNA” (University of Florida Research Foundation, Incorporated, priority 2020, dated 2026).
Entries after “also recorded” stand apart in the source; their conditions may differ.

What was measured:
[1] = molecular target: T1, RNase L / pre-miR-21 ternary complex (Homo sapiens, UniProt Q05823); assay: RNase L immunoprecipitation; format: cell-based; conditions: 1 μM
T1 construct: endogenous in cells; host or cells: MDA-MB-231
T1 sequence (Q05823 1-741): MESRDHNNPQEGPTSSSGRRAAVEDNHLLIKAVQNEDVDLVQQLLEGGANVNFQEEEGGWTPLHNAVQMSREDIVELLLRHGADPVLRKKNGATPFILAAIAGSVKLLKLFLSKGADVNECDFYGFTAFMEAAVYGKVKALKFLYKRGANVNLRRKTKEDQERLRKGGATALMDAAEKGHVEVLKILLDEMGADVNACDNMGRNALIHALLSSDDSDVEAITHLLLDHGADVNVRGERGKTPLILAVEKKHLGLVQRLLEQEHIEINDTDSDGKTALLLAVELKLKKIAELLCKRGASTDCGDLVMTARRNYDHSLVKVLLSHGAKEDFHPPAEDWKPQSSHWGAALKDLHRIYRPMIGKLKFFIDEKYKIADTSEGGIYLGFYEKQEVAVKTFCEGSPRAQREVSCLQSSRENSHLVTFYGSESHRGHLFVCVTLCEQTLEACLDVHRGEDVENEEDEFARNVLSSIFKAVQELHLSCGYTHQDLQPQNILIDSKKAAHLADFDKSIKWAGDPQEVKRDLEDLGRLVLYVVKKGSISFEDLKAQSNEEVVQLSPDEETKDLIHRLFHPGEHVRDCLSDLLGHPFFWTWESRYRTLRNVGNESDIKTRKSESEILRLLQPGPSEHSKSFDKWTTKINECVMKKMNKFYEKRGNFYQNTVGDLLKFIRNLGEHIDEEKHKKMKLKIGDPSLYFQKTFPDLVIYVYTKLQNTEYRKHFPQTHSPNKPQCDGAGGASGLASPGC
Method: RNase L Immunoprecipitation. MDA-MB-231 cells were seed in 6-well plates and were treated with vehicle, 4 (1 μM) or 5 (1 μM) when the cells reached ~70% confluency. After 48 h, the cells were harvested and lysed in 100 μL of M-PER buffer containing protease inhibitor and RNaseOUT recombinant Ribonuclease Inhibitor (Invitrogen) on ice for 20 min. The lysate was centrifuged at 13,000×g for 15 min, and the supernatants were incubated with Dynabeads Protein A (Life Technologies) bound to RNase L mouse primary antibody or β-actin mouse primary antibody overnight at 4° C. After incubation, the beads were washed with 1×DPBS containing 0.02% (v/v) Tween-20, and RNA was extracted by using a miRNeasy Mini Kit (Qiagen) per the manufacturer's instructions. RT-qPCR was performed as described above. Relative RNA levels were determined by ΔΔCt method by normalizing to 18S rRNA levels. Normalized fold change was calculated as previously described^6.

[2] = system: all miRNAs expressed in MDA-MB-231 cells; assay: Global miRNA profiling in MDA-MB-231 cells; format: cell-based, human
Method: RNA Isolation and Quantitative Real-Time PCR (RT-qPCR). After treatment, total RNA was extracted and purified by using the Zymo Quick-RNA mini prep kit per the manufacturer's protocol. Reverse Transcription (RT) for mature miRNAs as well as pri- and pre-miR-21 was completed on 200 ng of RNA by using a miScript 11 RT kit (QIAGEN) according to manufacturer's protocol. RT of mRNAs was performed by using QScript kit (Quanta Bio). An Applied Biosystems QS5 384-well PCR system was used to complete qPCR experiments using Power Sybr Green Mater Mix (Life Technologies) as described previously^6.

FLT3 = FLT3 degradation Western blot in MDA-MB-231 cells; format: cell-based, human
Method: In each case, the secondary antibody was diluted two times more than the primary antibody.

CCOC(=O)C1=C(Nc2ccccc2)S/C(=C\c2ccc(OCCOCCOCCOCCNC(=O)NCCN3CCN(c4ccc5[nH]c(-c6c(N)c7c(F)cccc7[nH]c6=O)nc5c4)CC3)c(O)c2)C1=O [Compound 2, Ribotac-Dovitinib] was tested, and the “enrichment of pre-miR-21 in RNase L immunoprecipitation” value ([1]; MDA-MB-231) was “immunoprecipitated pre-miR-21; also recorded: enriched”, the “enrichment of pre-miR-210 in RNase L immunoprecipitation” value ([1]; pre-miRNA without 1-binding site) was “did not enrich” and the “selectivity among all miRNAs” value [2] was “more selective than 1; also recorded: greater selectivity”. For the same compound, the “fold greater concentration than 1 required to compete off degradation by PROTAC 3” value (FLT3) was 100 fold and the “concentration required to compete off the target degradation of PROTAC 3” value (FLT3; co-treatment with 3) was 10 µM.
